Measurements: patent US20050239867A1, “Methods of using and compositions comprising PDE4 modulators for the treatment and management of pulmonary hypertension” (priority 2004, published 2005)

What was measured:
patients with PH [1] = test: Clinical Study 2 in patients with PH, 12 weeks, placebo controlled; assay type: in vivo, human
patients with PH [2] = test: Expanded clinical study in 213 PH patients, WHO functional class III or IV, 16 weeks; assay type: in vivo, human
Protocol: On the basis of the results of the above study 2, the clinical study is expanded with additional 213 PH patients for at least 16 weeks. The study is conducted with patients with PH, WHO functional class III or IV. Two hundred thirteen patients are randomized to receive either 400 mg bid or 800 mg bid of 3-(3,4-dimethoxy-phenyl)-3-(1-oxo-1,3-dihydro-isoindol-2-yl)-propionamide or placebo in a 1:1:1 ratio. The primary endpoint, a 6-minute walk distance, is evaluated at 16 weeks. The treated patients walk 36.4 meters further at 16 weeks compared to a 7.8 meter reduction in walk distance in the placebo group, for a treatment effect of 44.2 meters. Clinical worsening, defined by death, premature withdrawal from study, hospitalization for worsening of PH or institution of epoprostenol, occur in 37% of placebo-treated patients, compared with 11% of the patients treated with the compound of the invention.

TNF-α production = test: In vitro inhibition of cytokine (TNF-α) production following LPS-stimulation of human PBMC and human whole blood; assay type: cell-based; settings: in vitro studies; more potent than thalidomide
From the text: In a specific embodiment, the pharmacological properties of 3-(3,4-dimethoxy-phenyl)-3-(1-oxo-1,3-dihydro-isoindol-2-yl)-propionamide are characterized in in vitro studies. Studies examine the effects of the compound on the production of various cytokines. Inhibition of TNF-α production following LPS-stimulation of human PBMC and human whole blood by the compound is investigated in vitro. […] The pharmacological effects of 3-(3,4-dimethoxy-phenyl)-3-(1-oxo-1,3-dihydro-isoindol-2-yl)-propionamide may derive from its action as an inhibitor of the generation of inflammatory cytokines.

[3] = 12 weeks, compared with placebo patients
[4] = after 12 weeks of treatment, compared with placebo

## COc1ccc(C(CC(N)=O)N2Cc3ccccc3C2=O)cc1OC (centres unmarked) [3-(3,4-Dimethoxy-phenyl)-3-(1-oxo-1,3-dihydro-isoindol-2-yl)-propionamide]
Patients with PH [1]; [3]
  dyspnea score: improvements
  functional class: improvements
Patients with PH [1]; [4]
  cardiac output: increase
  pulmonary arterial pressure: decreases
  pulmonary vascular resistance: decreases
Patients with PH [1]; after 12 weeks, 400 mg for four weeks followed by 800 mg for eight weeks, NYHA functional class III
  6-minute walk distance, average walked farther: 70 meters
Patients with PH [2]; at 16 weeks, 400 mg bid or 800 mg bid
  6-minute walk distance, walked further: 36.4 meters
Patients with PH [2]; at 16 weeks, 400 mg bid or 800 mg bid, placebo 7.8 meter reduction
  6-minute walk distance, treatment effect versus placebo: 44.2 meters
Patients with PH [2]; at least 16 weeks, placebo 37%
  clinical worsening (death, premature withdrawal, hospitalization for worsening of PH or institution of epoprostenol), share of patients: 11%
Patients with PH [2]; treated versus placebo patients
  functional class: improved significantly more
TNF-α production
  pharmacological activity profile, potency relative to thalidomide: five to fifty
